Data set [1] can be described thus: Hydrolysis studies of C,N-chelated complexes and anation by NaCl (1H NMR). The class given is physicochemical. As to conditions: 20% MeOD-d4/80% D2O; equilibrium reached within ~5 min even at 278 K. The source says:
Hydrolysis Studies. The hydrolysis of complexes [(η^5-C5Me5)Ir(2-phpy)Cl] (ZL47), [(η^5-C5Me4C6H4C6H5)Ir(2-phpy)Cl] (ZL49), [(η^5-C5Me5) Ir(2-phq)Cl] (ZL68), [(η^5-C5Me5) Ir(tpy)Cl] (ZL69), [(η^5-C5Me5)Ir(2-dfphpy)Cl] (ZL74) and [(η^5-C5Me4C6H5)Ir(2-phpy) Cl] (ZL107) in 20% MeOD-d4/80% D2O (v/v) was monitored by ^1H NMR at different temperatures. The presence of methanol ensured the solubility of the complexes.

Data set [2] relates to ca. 60 cell lines within nine tumour type subpanels. The class given is cell-based. The source says: (§1) Six complexes, [(η^5-C5Me4C6H4C6H5)Ir(bpy)Cl]PF6 (ZL25, bpy=2,2′-bipyridine), [(η^5-C5Me4C6H5)Ir(phen)Cl]PF6 (ZL33, phen=1,10-phenanthroline), [(η^5-C5Me4C6H4C6H5) Ir(pico)Cl] (ZL43, pico=picolinate), [(η^5-C5Me5)Ir(2-phpy)Cl] (ZL47), [(η^5-C5Me4C6H4C6H5)Ir(2-phPY)(D2O)Cl] (ZL49) and [(η^5-C5Me4C6H4C6H5) Ir(phen)Cl]PF6 (ZL54), were selected by Developmental Therapeutics Program of National Cancer Institute (NCI, U.S.A.) for in vitro screening test, in which 5 complexes except ZL43 are selected for further testing. The five complexes were tested on ca. 60 cell lines within nine tumour type subpanels at five concentrations ranging from 0.01 to 100 μM.

Data set [3] has as its system 9-ethylguanine (9-EtG). Nature of the data set: Interactions with nucleobases: 9-EtG adduct formation (1H NMR). The class given is binding. As to conditions: 24 h; ca. 1.0 mM, 1 mol equiv 9-EtG, 20% MeOD-d4/80% D2O, 310 K. The gist of the method: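 Complexes (1 mM, equilibrium mixture with their aqua adducts) in 5% MeOD-d4/95% D2O mixed with 1–2 mol equiv 9-EtG in D2O. Adduct formation followed by 1H NMR at 310 K over various time intervals.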

Data set [4] relates to breast MDA-MB-468. Nature of the data set: NCI screen, single cell line. The data set is classed as cell-based.
Source text: as §1

Data set [5] deals with colon COLO 205. Nature of the data set: NCI screen, single cell line. The class given is cell-based.
Source text: as §1

The test system of data set [6] is melanoma SK-MEL-5. Nature of the data set: NCI screen, single cell line. The class given is cell-based.
Source text: as §1

In data set [7] the test system is human ovarian A2780 cancer cells. Nature of the data set: Cancer cell cytotoxicity, SRB assay. The data set is classed as cell-based. The note with it: 24 h exposure, 72 h recovery, SRB; read-out: A2780 IC50. The method, boiled down: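 Cells plated at 5000/well were dosed on day 3 with Ir^III complexes (0.05–100 μM, from DMSO stocks diluted into saline and medium) for 24 h. After washout they grew for 72 h in fresh medium before SRB protein staining as a survival read-out. Two independent experiments of three replicates each.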

Data set [8] has as its system human ovarian cancer cell line A2780cisR (cisplatin-resistant). The note with it: cited from earlier work.
The test system of data set [9] is human ovarian cancer cell line A2780. The note with it: cited from earlier work.

Some results are limits rather than exact numbers.

Regarding `Cc1c(C)c(C)[c-](-c2ccc(-c3ccccc3)cc2)c1C.[Cl-].[Ir+3].[c-]1ccccc1-c1ccccn1` [ZL49, [(η^5-C5Me4C6H4C6H5)Ir(2-phpy)Cl]], in data set [1], the “hydrolysis (in words)” value is listed as “rapid hydrolysis”. Further, the CC50 in data set [2] stood at 7080 ± 1050 nM. The “Mean graph midpoint (MID) TGI” value in data set [2] (ca. 60 cell lines, 0.01 to 100 μM) was determined as 2190 ± 150 nM. Also, the GI50 in [2] (ca. 60 cell lines, 0.01 to 100 μM, read-out: Mean graph midpoint (MID) GI50) was 710 ± 10 nM; in [4], below 200 nM; in data set [5], below 200 nM; in data set [6], below 200 nM. For the same molecule, the “selectivity among tumour type subpanels (in words)” value in [2] (mean graphs) is “selective for leukemia, colon cancer, and melanoma”. Further, the guanine adducts formed in data set [3] is on record as 100%. Besides, the IC50 in data set [7] amounted to 700 nM.

With `Cc1c(C)c(C)[c-](C)c1C.[Cl-].[Ir+3].c1ccc(-c2nccs2)nc1` [[(η^5-C5Me5)Ir (pyTz)Cl]^+], in [8], the “activity towards A2780cisR (in words)” value is “inactive”. In addition, the “activity towards A2780 (in words)” value in [9] is “inactive”.

The term CC50 denotes the concentration that lowers cell viability or growth by half. Broadly, the GI50 is the concentration that inhibits growth by half. Usually IC50 stands for the concentration that gives 50% inhibition.

These data come from patent US9408853B2, “Iridium/rhodium anti-cancer compounds” (University of Warwick, priority 2010, dated 2016).
